{"source": "patent US12031137B2", "about": "“Compositions comprising SASP modulators and senescence attenuators and uses thereof for modulating cellular senescence” (RSEM, LIMITED PARTNERSHIP, priority 2016, dated 2024)", "molecules": {"B1": {"name": "Trap M: NRP1 trap a1a2-b1, aa about 22-424; SEQ ID NOs 81/82 (protein)", "chain": "FRNDKCGDTIKIESPGYLTSPGYPHSYHPSEKCEWLIQAPDPYQRIMINFNPHFDLEDRDCKYDYVEVFDGENENGHFRGKFCGKIAPPPVVSSGPFLFIKFVSDYETHGAGFSIRYELFKRGPECSQNYTTPSGVIKSPGFPEKYPNSLECTYIVFAPKMSEIILEFESFDLEPDSNPPGGMFCRYDRLEIWDGFPDVGPHIGRYCGQKTPGRIRSSSGILSMVFYTDSAIAKEGFSANYSVLQSSVSEDFKCMEALGMESGEIHSDQITASSQYSTNWSAERSRLNYPENGWTPGEDSYREWIQVDLGLLRFVTAVGTQGAISKETKKKYYVKTYKIDVSSNGEDWITIKEGNKPVLFQGNTNPTDVVVAVFPKPLITRFVRIKPATWETGISMRFEVYGCRSGSKENLYFQG"}, "B2": {"name": "Trap AE: NRP1 trap a1a2b1b2, aa about 22-560, D320K; SEQ ID NOs 53/54 (protein)", "chain": "MERGLPLLCAVLALVLAPAGAFRNDKCGDTIKIESPGYLTSPGYPHSYHPSEKCEWLIQAPDPYQRIMINFNPHFDLEDRDCKYDYVEVFDGENENGHFRGKFCGKIAPPPVVSSGPFLFIKFVSDYETHGAGFSIRYELFKRGPECSQNYTTPSGVIKSPGFPEKYPNSLECTYIVFAPKMSEIILEFESFDLEPDSNPPGGMFCRYDRLEIWDGFPDVGPHIGRYCGQKTPGRIRSSSGILSMVFYTDSAIAKEGFSANYSVLQSSVSEDFKCMEALGMESGEIHSDQITASSQYSTNWSAERSRLNYPENGWTPGEKSYREWIQVDLGLLRFVTAVGTQGAISKETKKKYYVKTYKIDVSSNGEDWITIKEGNKPVLFQGNTNPTDVVVAVFPKPLITRFVRIKPATWETGISMRFEVYGCKITDYPCSGMLGMVSGLISDSQITSSNQGDRNWMPENIRLVTSRSGWALPPAPHSYINEWLQIDLGEEKIVRGIIIQGGKHRENKVFMRKFKIGYSNNGSDWKMIMDDSKRKAKSFEGNNNYDTPELRTFPALSTRFIRIYPERATHGGLGLRMELLGCRSGSKENLYFQG"}}, "key": {"[1]": {"tested_on": "mouse model of oxygen-induced retinopathy (OIR)", "experiment": "SA-β-gal staining of retinas in oxygen-induced retinopathy (OIR) after intravitreal injection", "format": "in vivo", "conditions": "single intravitreal injection at P12, vs vehicle", "source_text": "(§1) O2-induced retinopathy. Mouse pups from different strains (C57Bl/6 WT, LyzM-Cre, LysM-Cre/IRE1^fl/fl, LysM-Cre/IRE1^+/+, IRE1^fl/fl and LysM-Cre/ROSA26EYFP^fl/fl), and their fostering mothers (CD1, Charles River) were exposed to 75% 02 from postnatal day 7 (P7) to day 12 and returned to room air. This model serves as a proxy to human ocular neovascular diseases such as ROP and diabetic retinopathy characterized by a late phase of destructive pathological angiogenesis (72, 73). Upon return to room air, hypoxia-driven neovascularization (NV) develops from P14 onwards (27). We enucleated eyes at different time points and dissected the retinas for mRNA, protein assays or flatmounting.\nSenescence-associated β-galactosidase (SA-β-gal) assay. Senescence-associated β-galactosidase assays were carried out as described previously (57, 75)\nQuantification of SA-β-gal in vivo. Senescence-associated β-galactosidase staining in flatmount retinas or sagittal eye sections were analyzed using Image J software as described in FIG. 14.\n(§2) Intravitreal injections. P2, P10 or P12 C57BL/6 pups were anesthetized with 3.0% isoflurane and injected in the vitreous chamber with 0.5 μL of lentivirus (see “Lentivirus production”), recombinant SEMA3A (100 ng/μL), metformin (10 μg/μL) or Aflibercept (10 μg/uL) using a 10-μL Hamilton syringe fitted with a […] glass capillary tip. Approximately 254±11.0 ng/μL of lentivirus Sh_GFP and 323.3±15.3 ng/μL containing Sh_Sema3a, Lv.Cre (15.0 ng/mL), Lv.GFP (15.0 ng/mL) was injected. Virus titers were assessed with the p24 ELISA kit (ZeptoMetrix). The titers of the lentiviruses used were (in ng p24) LV.Sh_RNA IRE1α (8.52 ng/mL), and LV.Sh_RNA.GFP (8.47 ng/mL)."}, "[2]": {"tested_on": "mouse model of oxygen-induced retinopathy (OIR)", "experiment": "Immunoblot and RT-qPCR of OIR retinas after intravitreal injection", "format": "in vivo", "conditions": "intravitreal injection at P12, P14 OIR retinas", "source_text": "as §1\n(§3) Semi-quantitative and Real-time PCR analysis. We isolated RNA using the GenElute™ Mammalian Total RNA Miniprep Kit (Sigma) and performed a digestion with DNase I to prevent amplification of genomic DNA. We reversed transcribed the RNA using M-MLV reverse transcriptase and analyzed gene expression using SybrGreen™ in an ABI Biosystems Real-Time PCR machine. β-actin was used as a reference gene. […] We investigated the splicing of XBP-1 by incubating the XBP-1 semi-quantitative PCR product with 0.4 U/μL of PstI enzyme for 5 hrs at 37° C. followed by separation on 2.5% agarose gel.\nas §2\n(§4) Western blotting. We enucleated eyes at varying time points and rapidly dissected and homogenized retinas for assessment of retinal protein levels. Protein concentration from retinal homogenate and cell lysates were assessed by BCA assay (Sigma), and then 30 μg of protein analyzed for each condition by standard SDS-PAGE technique."}, "[3]": {"tested_on": "mouse model of oxygen-induced retinopathy (OIR)", "experiment": "Avascular area and pre-retinal neovascularization in OIR flatmount retinas", "format": "in vivo"}, "SEMA3A-FC": {"tested_on": "SEMA3A-FC", "experiment": "Sema 3A binding assay on plate-coated purified traps (saturation curves, KD)", "conditions": "for Binding to SEMA3A: Table 2, Yes/No", "protocol": "(§5) Sema 3A and AP-VEGF165 binding assays. Saturation curves for the determinations of KD of binding to SEMA 3A or VEGF165 were obtained as follow. Wells of high protein binding 96 well plates (Maxisorp, Nunc) were coated with purified traps diluted in PBS and blocked afterward with binding buffer (PBS containing 2% casein and 0.05% Tween 20). The SEMA3A-FC (R&D systems) or AP-VEGF165 ligands were diluted in binding buffer over an extensive range of concentrations and added to wells. Following an overnight incubation, wells were washed with PBS containing 0.05% tween. Bound SEMA3a-FC was detected using an HRP-linked anti-Human IgG (Biorad) and ECL substrate (Pierce). Alternatively, bound AP-VEGF165 was detected using CPD star substrate (Roche). The Chemiluminescent signal was acquired on a TECAN reader. Dissociation constant (KD) were determined by non-linear curve fitting using the Graph Pad prism software.\n(§6) The relative affinity of traps of the present invention to SEMA3A and VEGF has been assessed. Traps were prepared as described in Example 8."}, "human VEGF165": {"target": "T1, human VEGF165 (Homo sapiens, UniProt P15692)", "T1 construct": "made in house; host or cells: HEK293T", "T1 sequence (P15692 27-191 isoform P15692-4)": "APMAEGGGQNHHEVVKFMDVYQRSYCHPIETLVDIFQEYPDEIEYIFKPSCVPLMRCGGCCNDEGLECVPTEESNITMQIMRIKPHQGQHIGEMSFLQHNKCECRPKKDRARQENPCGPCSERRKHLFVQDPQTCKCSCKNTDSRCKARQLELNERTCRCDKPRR", "experiment": "AP-VEGF165 binding assay on plate-coated purified traps (saturation curves, KD)", "conditions": "AP-VEGF165 ligand; for Kd: read-out: VEGF165 binding (dissociation constant)", "protocol": "Production of AP-VEGF165. the coding sequence of the human VEGF165 variant 1 (NM_001025366) was sub-cloned in the pAPtag5 vector (GenHunter), in-frame with an Alkaline Phosphatase domain (AP-VEGF165). HEK293T cells were transfected with the AP-VEGF165 construct using a polyethylenimine (PEI) transfection method. Following the overnight transfection step, cells were cultured for an additional 60 hr in serum free media (In vitrogen). The cell media were collected and concentrated on a PES device (Pierce). The concentrated AP-VEGF165 ligand was analysed on PAGE-SDS and quantified using SimplyBlue safe stain (Life technologies).\nas §5, §6"}, "[4]": {"target": "T2, IRE1α's endoribonuclease activity (Mus musculus, UniProt Q9EQY0)", "T2 construct": "endogenous in cells; host or cells: J774 (J774A.1) mouse macrophage-like cells", "T2 sequence (Q9EQY0 21-977)": "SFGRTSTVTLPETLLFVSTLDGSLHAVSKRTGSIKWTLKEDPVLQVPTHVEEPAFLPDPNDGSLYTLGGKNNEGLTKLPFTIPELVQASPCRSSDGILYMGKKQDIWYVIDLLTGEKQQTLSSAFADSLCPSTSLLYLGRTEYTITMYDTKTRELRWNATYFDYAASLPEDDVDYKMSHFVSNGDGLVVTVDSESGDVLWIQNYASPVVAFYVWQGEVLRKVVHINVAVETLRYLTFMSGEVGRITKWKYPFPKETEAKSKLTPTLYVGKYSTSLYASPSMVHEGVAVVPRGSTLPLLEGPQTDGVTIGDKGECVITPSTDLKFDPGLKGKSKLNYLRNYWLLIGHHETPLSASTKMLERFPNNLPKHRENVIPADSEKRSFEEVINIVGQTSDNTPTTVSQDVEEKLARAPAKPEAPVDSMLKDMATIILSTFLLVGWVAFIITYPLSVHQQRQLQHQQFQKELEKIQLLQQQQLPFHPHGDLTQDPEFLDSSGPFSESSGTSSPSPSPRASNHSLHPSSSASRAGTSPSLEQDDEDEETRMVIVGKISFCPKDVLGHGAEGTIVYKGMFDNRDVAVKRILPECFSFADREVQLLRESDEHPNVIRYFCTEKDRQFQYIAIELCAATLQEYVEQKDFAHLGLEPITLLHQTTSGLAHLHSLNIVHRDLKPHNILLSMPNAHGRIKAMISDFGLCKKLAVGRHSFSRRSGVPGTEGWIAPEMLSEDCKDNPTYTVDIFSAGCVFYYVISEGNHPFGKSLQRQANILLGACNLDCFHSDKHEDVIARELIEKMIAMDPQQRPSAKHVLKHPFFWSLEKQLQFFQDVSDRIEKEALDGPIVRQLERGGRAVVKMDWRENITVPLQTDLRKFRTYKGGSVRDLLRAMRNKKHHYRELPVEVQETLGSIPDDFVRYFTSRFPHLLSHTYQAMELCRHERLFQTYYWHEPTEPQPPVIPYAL", "experiment": "SEMA3A-driven senescence in J774 cells with IRE1α RNase inhibitor", "format": "cell-based", "protocol": "FIG. 7C: Representative confocal immunofluorescence staining of γH2AX and DAPI of J774 macrophages stimulated with SEMA3A (100 ng/mL) or vehicle for 7 days (Scale bars are 100 μm). Higher magnification views of the outlined areas are shown (Scale bars are 50 μm). Immunoblots (FIG. 7D) for the XBP1(s) (spliced isoform) and PCR (FIG. 7E) for XBP1(s) and unspliced XBP1 (u) in J774 cell lysates treated with vehicle, S3A (100 ng/ml) and/or 4μ8c (1 ng/ml) at day 7 post-treatment. FIG. 7F: RT-qPCR for levels of Pai1, II6, II1β, Tgf-β1, Tp53, Ire1α and Tnfα in J774 stimulated with SEMA3A alone or with 4μ8c. β-actin was used as a reference gene. ***P<0.0001, *P<0.005. Scale bars: 100 μm for C & G. High mag C is 50 μm. Data are presented as mean±SEM;\nTo determine whether SEMA3A-driven senescence was occurring through IRE1α's kinase or RNAse activity, the selective cell-permeable coumarin o-hydroxyaldehyde pharmacological inhibitor of IRE1α's endoribonuclease activity, 4μ8c, was used. Exposure to 4μ8c (FIG. 7D) prevented SEMA3A-induced growth arrest and abrogated SEMA3A-induced senescence (data not shown). […] Ultimately, pharmacological inhibition of the endoribonuclease activity of IRE1α inhibited production of specific senescence-associated genes Vegf-a, Tgf-β1, II-1β, II-6, Pai-1, Tp53 while there is no effect on Tnf-α or IRE1α itself (FIG. 7F).\nas §3, §4"}, "[5]": {"conditions": "intravitreal injection at P12 of OIR"}, "[6]": {"conditions": "J774 stimulated with SEMA3A alone or with 4μ8c"}}, "data": [{"molecule": "Aflibercept: recombinant fusion protein made-up of the extracellular domains of human VEGF receptors 1 and 2 and an Fc portion", "values": [{"measurement": "SA-β-gal staining at P14 OIR", "setting": "[1]", "result": "did not significantly influence"}, {"measurement": "SA-β-gal staining at P17 OIR (cellular senescence)", "setting": "[1]", "result": "did not significantly influence"}, {"measurement": "drivers of senescence (Cdkn2a, Tp53, Il1β, Tgf-β1, Sema3a RT-qPCR)", "setting": "[2]", "result": "does not modulate"}, {"measurement": "pathological neovascularization at P17 OIR", "setting": "[3]; intravitreal injection at P12, vs vehicle", "result": "marked decrease"}, {"measurement": "rates of vascular regeneration at P14", "setting": "[3]; [5]", "result": "does not modulate"}, {"measurement": "rates of vascular regeneration at P17", "setting": "[3]; [5]", "result": "does not modulate"}]}, {"molecule": "Trap G: NRP1 trap a1a2-b1b2-c, aa about 22-856; SEQ ID NOs 67/68", "values": [{"measurement": "SA-β-gal staining at P17 OIR (cellular senescence)", "setting": "[1]", "result": "significant attenuation"}, {"measurement": "Binding to SEMA3A", "setting": "SEMA3A-FC", "result": "Yes"}, {"measurement": "preference for SEMA3A over VEGF binding", "setting": "SEMA3A-FC; in words", "result": "much less important"}, {"measurement": "Kd", "setting": "SEMA3A-FC; traps coated on plate, overnight incubation, read-out: SEMA 3A-FC binding (dissociation constant)", "result": 0.8, "unit": "nM"}, {"measurement": "Kd", "setting": "human VEGF165", "result": 6.75, "unit": "nM"}]}, {"molecule": "Cc1cc(=O)oc2c(C=O)c(O)ccc12", "note": "[Trap 4μ8c]", "values": [{"measurement": "SEMA3A-mediated splicing and activation of XBP1", "setting": "[4]; J774, S3A 100 ng/ml, 4μ8c 1 ng/ml, day 7", "result": "prevented"}, {"measurement": "SEMA3A-induced growth arrest", "setting": "[4]; J774 cells, data not shown", "result": "prevented"}, {"measurement": "SEMA3A-induced senescence", "setting": "[4]; J774 cells, data not shown", "result": "abrogated"}, {"measurement": "Tnf-α or IRE1α expression (RT-qPCR)", "setting": "[4]; [6]", "result": "no effect"}, {"measurement": "production of senescence-associated genes Vegf-a, Tgf-β1, Il-1β, Il-6, Pai-1, Tp53 (RT-qPCR)", "setting": "[4]; [6]", "result": "inhibited"}]}, {"molecule": "B1", "values": [{"measurement": "SA-β-gal staining at P17 OIR (cellular senescence)", "setting": "[1]", "result": "significant attenuation"}, {"measurement": "Binding to SEMA3A", "setting": "SEMA3A-FC", "result": "Yes"}, {"measurement": "kd for SEMA3A relative to VEGF", "setting": "SEMA3A-FC; see Table 6", "result": "about 20 ×"}, {"measurement": "Kd", "setting": "human VEGF165", "result": 20.1, "unit": "nM"}]}, {"molecule": "B2", "values": [{"measurement": "Binding to SEMA3A", "setting": "SEMA3A-FC", "result": "No"}, {"measurement": "SEMA 3A-FC binding (dissociation constant)", "setting": "SEMA3A-FC; traps coated on plate, overnight incubation", "result": "No binding"}, {"measurement": "VEGF165 binding (dissociation constant)", "setting": "human VEGF165", "result": "No binding"}]}]}
